In patent US20100137313A1 (ASTRAZENECA AB, priority 2008, published 2010):

These compounds were tested against S. pneumoniae Topoisomerase IV ATPase (ParE) (Streptococcus pneumoniae serotype 4, UniProt Q59961) (assay: S. pneumoniae Topoisomerase IV ATPase inhibition). Conditions: values marked * are an average of two or more data points, 13 µM.
Format: biochemical
Summary of the method: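 Malachite green/ammonium molybdate phosphate detection, A650. 1.25 nM ParE, 160 μM ATP, sheared salmon sperm DNA 5 μg/ml, 20 mM Tris pH 8.0, 8.0 mM MgCl2. Controls: 2% DMSO = 0%, 20 μM EDTA = 100% inhibition; IC50 over 10 concentrations.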

S. pneumoniae Topoisomerase IV ATPase (ParE), sequence (Q59961 whole entry): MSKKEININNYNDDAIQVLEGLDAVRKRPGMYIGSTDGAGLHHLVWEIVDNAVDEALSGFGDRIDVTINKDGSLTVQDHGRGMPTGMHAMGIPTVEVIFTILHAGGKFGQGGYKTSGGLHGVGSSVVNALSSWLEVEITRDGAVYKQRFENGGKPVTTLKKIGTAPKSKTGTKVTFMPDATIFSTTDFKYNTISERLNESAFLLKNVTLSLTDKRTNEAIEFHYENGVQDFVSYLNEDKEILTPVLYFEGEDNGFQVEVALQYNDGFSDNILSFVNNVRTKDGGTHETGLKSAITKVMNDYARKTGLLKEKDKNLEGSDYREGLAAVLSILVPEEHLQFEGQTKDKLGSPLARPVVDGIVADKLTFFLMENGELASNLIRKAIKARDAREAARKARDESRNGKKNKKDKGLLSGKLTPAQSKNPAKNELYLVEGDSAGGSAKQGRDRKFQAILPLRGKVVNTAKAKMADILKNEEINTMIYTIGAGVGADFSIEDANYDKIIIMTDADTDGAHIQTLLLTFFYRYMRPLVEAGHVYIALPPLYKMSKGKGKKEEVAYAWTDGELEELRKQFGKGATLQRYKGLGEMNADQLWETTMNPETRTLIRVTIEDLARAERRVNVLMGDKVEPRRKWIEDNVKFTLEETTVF

With `COc1ccc(C(=O)O)cc1-c1cnc(Nc2ccc(F)c(Cl)c2)nc1-n1ccc(C(F)(F)F)n1` [Example 1138, 3-(2-(3-chloro-4-fluorophenylamino)-4-(3-(trifluoromethyl)-1H-pyrazol-1-yl)pyrimidin-5-yl)-4-methoxybenzoic acid] as the compound, how does the “% Inh (13 μM) of S. pneumoniae Topoisomerase IV ATPase” value read?
The value was 94%.

Same assay, conditions: values marked * are an average of two or more data points, read-out: % Inh (13 μM) of S. pneumoniae Topoisomerase IV ATPase

For `O=C(O)c1cncc(-c2cnc(Nc3ccc(F)c(Cl)c3)nc2NCc2nc3ccccc3[nH]2)c1` [Example 241, 5-[4-(1H-benzimidazol-2-ylmethylamino)-2-[(3-chloro-4-fluorophenyl)amino]-pyrimidin-5-yl]pyridine-3-carboxylic acid], which inhibition at 13 µM is on record?
Its inhibition at 13 µM is 71.5%.

`COCCCNc1nc(Nc2ccc(F)c(Cl)c2)ncc1-c1nc(-c2nccs2)cs1` [Example 502, 5-(2,4′-bi-1,3-thiazol-2′-yl)-N^2-(3-chloro-4-fluorophenyl)-N^4-(3-methoxypropyl)pyrimidine-2,4-diamine] was tested. Which inhibition at 13 µM did it give?
Its inhibition at 13 µM is 10%.

Which inhibition at 13 µM does the source give for `COc1cc(Nc2ncc(-c3cncc(C(=O)NCC(O)CO)c3)c(-n3nc(C(F)(F)F)cc3C)n2)cc(C(F)(F)F)c1` (centres unmarked) [Example 936, N-(2,3-dihydroxypropyl)-5-(2-(3-methoxy-5-(trifluoromethyl)phenylamino)-4-(5-methyl-3-(trifluoromethyl)-1H-pyrazol-1-yl)pyrimidin-5-yl)nicotinamide] here?
The inhibition at 13 µM was 100%.

For `O=C(O)c1cncc(-c2cnc(Nc3ccc(F)c(Cl)c3)nc2NCc2cccnc2)c1` [Example 223, 5-{2-(3-Chloro-4-fluoro-phenylamino)-4-[(pyridin-3-ylmethyl)-amino]-pyrimidin-5-yl}-nicotinic acid], which inhibition at 13 µM is on record?
Its inhibition at 13 µM is 77.4%.

With `COc1cc(Nc2ncc(-c3cnc(OC)c(C(=O)NS(C)(=O)=O)c3)c(-n3ccc(C(F)(F)F)n3)n2)cc(OC)c1` [Example 901, 5-(2-(3,5-dimethoxyphenylamino)-4-(3-(trifluoromethyl)-1H-pyrazol-1-yl)pyrimidin-5-yl)-2-methoxy-N-(methylsulfonyl)nicotinamide] as the compound, how does the inhibition at 13 µM read?
Its inhibition at 13 µM is 97%.

For `O[C@H]1CC[C@H](Nc2nc(Nc3ccc(F)c(Cl)c3)ncc2-c2cncnc2)CC1` [Example 68, trans-4-[[2-[(3-chloro-4-fluorophenyl)amino]-5-pyrimidin-5-ylpyrimidin-4-yl]amino]cyclohexan-1-ol], which inhibition at 13 µM is on record?
The inhibition at 13 µM was 72.9%.

With `COc1cc(Nc2ncc(-c3cnc(OC)c(C(=O)NS(=O)(=O)c4sc(C)nc4C)c3)c(-n3nc(C(F)(F)F)cc3C)n2)cc(OC)c1` [Example 837, 5-{2-[(3,5-dimethoxyphenyl)amino]-4-[5-methyl-3-(trifluoromethyl)-1H-pyrazol-1-yl]pyrimidin-5-yl}-N-[(2,4-dimethyl-1,3-thiazol-5-yl)sulfonyl]-2-methoxypyridine-3-carboxamide] as the compound, how does the inhibition at 13 µM read?
The inhibition at 13 µM was 94%.

For `CCC1COC(C)CN1c1nc(Nc2ccc(F)c(Cl)c2)ncc1-c1cccc(/C=C/C(=O)O)c1` (centres unmarked) [Example 1056, (E)-3-(3-(2-(3-chloro-4-fluorophenylamino)-4-(5-ethyl-2-methylmorpholino)pyrimidin-5-yl)phenyl)acrylic acid], which inhibition at 13 µM is on record?
The inhibition at 13 µM was 85%.

How did the inhibition at 13 µM turn out when `Cc1cc(C(F)(F)F)nn1-c1nc(Nc2ccc(F)c(Cl)c2)ncc1-c1c[nH]c(=O)c(C(=O)O)c1` [Example 1094, 5-(2-(3-Chloro-4-fluorophenylamino)-4-(5-methyl-3-(trifluoromethyl)-1H-pyrazol-1-yl)pyrimidin-5-yl)-2-oxo-1,2-dihydropyridine-3-carboxylic acid] was run?
The inhibition at 13 µM was 99%.

How did the inhibition at 13 µM turn out when `O=C(O)/C=C/c1cccc(-c2cnc(Nc3ccc(F)c(Cl)c3)nc2N[C@@H]2CCOC2)c1` [Example 295, (R,E)-3-(3-(2-(3-chloro-4-fluorophenylamino)-4-(tetrahydrofuran-3-ylamino)pyrimidin-5-yl)phenyl)acrylic acid] was run?
The inhibition at 13 µM was 82.7%.

With `COc1cc(Nc2ncc(-c3cccc(/C=C/C(=O)O)c3)c(N[C@@H]3CCOC3)n2)cc(OC)c1` [Example 357, (R,E)-3-(3-(2-(3,5-dimethoxyphenylamino)-4-(tetrahydrofuran-3-ylamino)pyrimidin-5-yl)phenyl)acrylic acid] as the compound, how does the inhibition at 13 µM read?
The inhibition at 13 µM was 85.3%.

Which inhibition at 13 µM does the source give for `CCS(=O)(=O)NC(=O)c1cc(-c2cnc(Nc3cc(OC)cc(OC)c3)nc2-n2ccc(C(F)(F)F)n2)cnc1OC` [Example 814, 5-{2-[(3,5-dimethoxyphenyl)amino]-4-[3-(trifluoromethyl)-1H-pyrazol-1-yl]pyrimidin-5-yl}-N-(ethylsulfonyl)-2-methoxypyridine-3-carboxamide] here?
Its inhibition at 13 µM is 100%.

With `Cc1cc(C)cc(Nc2ncc(-c3cc(C(=O)O)c(=O)n(C)c3)c(-n3nc(C(F)(F)F)cc3C)n2)c1` [Example 1166, 5-(2-(3,5-dimethylphenylamino)-4-(5-methyl-3-(trifluoromethyl)-1H-pyrazol-1-yl)pyrimidin-5-yl)-1-methyl-2-oxo-1,2-dihydropyridine-3-carboxylic acid] as the compound, how does the inhibition at 13 µM read?
Its inhibition at 13 µM is 100%.

For `CCC(C)Nc1nc(Nc2ccc(F)c(Cl)c2)ncc1-c1ccc(OC)c(C(F)(F)F)c1` (centres unmarked) [Example 1109, N′-butan-2-yl-N-(3-chloro-4-fluorophenyl)-5-[4-methoxy-3-(trifluoromethyl)phenyl]pyrimidine-2,4-diamine], which inhibition at 13 µM is on record?
Its inhibition at 13 µM is 28%.

`CCn1cc(-c2cnc(Nc3cc(C)cc(OC)c3)nc2-n2ccc(C(F)(F)F)n2)cc(C(=O)O)c1=O` [Example 1172, 1-ethyl-5-{2-[(3-methoxy-5-methylphenyl)amino]-4-[3-(trifluoromethyl)-1H-pyrazol-1-yl]pyrimidin-5-yl}-2-oxo-1,2-dihydropyridine-3-carboxylic acid] was tested. Which inhibition at 13 µM did it give?
Its inhibition at 13 µM is 100%.

For `CC1(C)[C@@H](C(=O)O)[C@@H]1c1cccc(-c2cnc(Nc3ccc(F)cc3)nc2-n2ccc(C(F)(F)F)n2)c1` [Example 571, (1,3-trans)-3-(3-(2-(4-fluorophenylamino)-4-(3-(trifluoromethyl)-1H-pyrazol-1-yl)pyrimidin-5-yl)phenyl)-2,2-dimethylcyclopropanecarboxylic acid], which inhibition at 13 µM is on record?
The inhibition at 13 µM was 17%.

With `COc1ncc(-c2cnc(Nc3cc(C)cc(C)c3)nc2-n2ccc(C(F)(F)F)n2)cc1C(=O)NS(=O)(=O)CCCN1CCOCC1` [Example 828, 5-{2-[(3,5-dimethylphenyl)amino]-4-[3-(trifluoromethyl)-1H-pyrazol-1-yl]pyrimidin-5-yl}-2-methoxy-N-{[3-(morpholin-4-yl)propyl]sulfonyl}pyridine-3-carboxamide] as the compound, how does the inhibition at 13 µM read?
Its inhibition at 13 µM is 100%.

Which inhibition at 13 µM does the source give for `COCCCNc1nc(Nc2ccc(F)c(Cl)c2)ncc1-c1nc(C)c(C(=O)OC)s1` [Example 505, methyl 2-{2-[(3-chloro-4-fluorophenyl)amino]-4-[(3-methoxypropyl)amino]pyrimidin-5-yl}-4-methyl-1,3-thiazole-5-carboxylate] here?
The inhibition at 13 µM was 19%.

With `Cc1cc(C)cc(Nc2ncc(-c3cccc(/C=C/C(=O)O)c3)c(-n3nc(C(F)(F)F)cc3C)n2)c1` [Example 618, (2E)-3-(3-{2-[(3,5-dimethylphenyl)amino]-4-[5-methyl-3-(trifluoromethyl)-1H-pyrazol-1-yl]pyrimidin-5-yl}phenyl)prop-2-enoic acid] as the compound, how does the inhibition at 13 µM read?
The inhibition at 13 µM was 98%.

How did the inhibition at 13 µM turn out when `COc1ncc(-c2cnc(Nc3ccc(F)c(Cl)c3)nc2NCc2ccncc2C)cn1` [Example 463, N2-(3-chloro-4-fluorophenyl)-2′-methoxy-N4-((3-methylpyridin-4-yl)methyl)-5,5′-bipyrimidine-2,4-diamine] was run?
The inhibition at 13 µM was 67%.

Which inhibition at 13 µM does the source give for `COc1ncc(-c2cnc(Nc3cc(C)cc(C)c3)nc2-n2nc(C(F)(F)F)cc2C)cc1C(=O)NS(=O)(=O)CCCN1CCOCC1` [Example 829, 5-{2-[(3,5-dimethylphenyl)amino]-4-[5-methyl-3-(trifluoromethyl)-1H-pyrazol-1-yl]pyrimidin-5-yl}-2-methoxy-N-{[3-(morpholin-4-yl)propyl]sulfonyl}pyridine-3-carboxamide] here?
Its inhibition at 13 µM is 100%.

With `COc1ccc(-c2cnc(Nc3ccc(F)c(Cl)c3)nc2NCCCN(C)C)cc1` [Example 25, N^2-(3-chloro-4-fluorophenyl)-N^4-[3-(dimethylamino)propyl]-5-(4-methoxyphenyl)-pyrimidine-2,4-diamine] as the compound, how does the inhibition at 13 µM read?
The inhibition at 13 µM was 90.5%.

With `COc1cc(Nc2ncc(-c3cnc(SC)c(C(=O)O)c3)c(-n3ccc(C(F)(F)F)n3)n2)cc(OC)c1` [Example 851, 5-{2-[(3,5-dimethoxyphenyl)amino]-4-[3-(trifluoromethyl)-1H-pyrazol-1-yl]pyrimidin-5-yl}-2-(methylsulfanyl)pyridine-3-carboxylic acid] as the compound, how does the inhibition at 13 µM read?
Its inhibition at 13 µM is 98%.

How did the inhibition at 13 µM turn out when `CCNC(=O)c1ccc(-c2cnc(Nc3ccc(F)c(Cl)c3)nc2NCCCN(C)C)cc1` [Example 363, 4-(2-(3-chloro-4-fluorophenylamino)-4-(3-(dimethylamino)propylamino)pyrimidin-5-yl)-N-ethylbenzamide] was run?
The inhibition at 13 µM was 57.9%.

How did the inhibition at 13 µM turn out when `O=C(O)COc1cccc(-c2cnc(Nc3ccc(F)c(Cl)c3)nc2N2CCOCC2)c1` [Example 488, (3-{2-[(3-chloro-4-fluorophenyl)amino]-4-(morpholin-4-yl)pyrimidin-5-yl}phenoxy)acetic acid] was run?
Its inhibition at 13 µM is 92%.

`COc1ncc(-c2cnc(Nc3cc(C)cc(C)c3)nc2-n2nc(C(F)(F)F)cc2C)cc1C(=O)O` [Example 646, 5-{2-[(3,5-dimethylphenyl)amino]-4-[5-methyl-3-(trifluoromethyl)-1H-pyrazol-1-yl]pyrimidin-5-yl}-2-methoxypyridine-3-carboxylic acid] was tested. Which inhibition at 13 µM did it give?
The inhibition at 13 µM was 100%.

Which inhibition at 13 µM does the source give for `CC(=O)NC1CCN(c2nc(Nc3ccc(F)c(Cl)c3)ncc2-c2cncnc2)CC1` [Example 69, N-[1-[2-[(3-chloro-4-fluorophenyl)amino]-5-pyrimidin-5-ylpyrimidin-4-yl]piperidin-4-yl]acetamide] here?
The inhibition at 13 µM was 77%.

How did the inhibition at 13 µM turn out when `CCOC(=O)c1cncc(-c2cnc(Nc3ccc(F)c(Cl)c3)nc2NCCN2CCS(=O)(=O)CC2)c1` [Example 104, 5-{2-(3-Chloro-4-fluoro-phenylamino)-4-[2-(1,1-dioxo-1λ^6-thiomorpholin-4-yl)-ethylamino]-pyrimidin-5-yl}-nicotinic acid ethyl ester] was run?
Its inhibition at 13 µM is 76.2%.
